Each block holds one compound with its values, some of them ahead of it. The source made the active and inactive calls.
Columns and labels:
[1] = biological target: T1, High affinity choline transporter 1 (Homo sapiens, UniProt Q9GZV3); assay: human choline transporter potentiators, potency – cell-based, 10-point CRC, membrane potential dye, dose response (AID 602376); type: functional
T1 sequence (Q9GZV3 whole entry): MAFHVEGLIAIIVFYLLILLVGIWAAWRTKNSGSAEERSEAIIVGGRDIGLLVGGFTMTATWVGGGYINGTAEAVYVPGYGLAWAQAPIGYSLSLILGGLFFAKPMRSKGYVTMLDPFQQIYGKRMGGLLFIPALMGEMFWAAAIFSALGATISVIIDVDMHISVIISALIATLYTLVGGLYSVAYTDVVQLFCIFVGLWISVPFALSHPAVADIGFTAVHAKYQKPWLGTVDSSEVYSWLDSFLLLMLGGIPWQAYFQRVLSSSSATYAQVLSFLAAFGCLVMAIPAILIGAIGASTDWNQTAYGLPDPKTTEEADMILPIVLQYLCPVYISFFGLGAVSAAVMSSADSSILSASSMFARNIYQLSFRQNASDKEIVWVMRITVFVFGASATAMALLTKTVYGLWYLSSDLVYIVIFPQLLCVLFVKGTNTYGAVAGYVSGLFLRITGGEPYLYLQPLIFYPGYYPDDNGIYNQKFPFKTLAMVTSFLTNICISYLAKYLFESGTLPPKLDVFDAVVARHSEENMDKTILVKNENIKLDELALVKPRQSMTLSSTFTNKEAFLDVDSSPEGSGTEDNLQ

[2] = biological target: Potassium voltage-gated channel subfamily KQT member 2 (Rattus norvegicus, UniProt O88943); assay: blockers of KCNQ2 channel current – cell-based, automated electrophysiology, set II, rat KCNQ2, dose response (AID 588637); type: functional
Chain of Potassium voltage-gated channel subfamily KQT member 2 (O88943 whole entry): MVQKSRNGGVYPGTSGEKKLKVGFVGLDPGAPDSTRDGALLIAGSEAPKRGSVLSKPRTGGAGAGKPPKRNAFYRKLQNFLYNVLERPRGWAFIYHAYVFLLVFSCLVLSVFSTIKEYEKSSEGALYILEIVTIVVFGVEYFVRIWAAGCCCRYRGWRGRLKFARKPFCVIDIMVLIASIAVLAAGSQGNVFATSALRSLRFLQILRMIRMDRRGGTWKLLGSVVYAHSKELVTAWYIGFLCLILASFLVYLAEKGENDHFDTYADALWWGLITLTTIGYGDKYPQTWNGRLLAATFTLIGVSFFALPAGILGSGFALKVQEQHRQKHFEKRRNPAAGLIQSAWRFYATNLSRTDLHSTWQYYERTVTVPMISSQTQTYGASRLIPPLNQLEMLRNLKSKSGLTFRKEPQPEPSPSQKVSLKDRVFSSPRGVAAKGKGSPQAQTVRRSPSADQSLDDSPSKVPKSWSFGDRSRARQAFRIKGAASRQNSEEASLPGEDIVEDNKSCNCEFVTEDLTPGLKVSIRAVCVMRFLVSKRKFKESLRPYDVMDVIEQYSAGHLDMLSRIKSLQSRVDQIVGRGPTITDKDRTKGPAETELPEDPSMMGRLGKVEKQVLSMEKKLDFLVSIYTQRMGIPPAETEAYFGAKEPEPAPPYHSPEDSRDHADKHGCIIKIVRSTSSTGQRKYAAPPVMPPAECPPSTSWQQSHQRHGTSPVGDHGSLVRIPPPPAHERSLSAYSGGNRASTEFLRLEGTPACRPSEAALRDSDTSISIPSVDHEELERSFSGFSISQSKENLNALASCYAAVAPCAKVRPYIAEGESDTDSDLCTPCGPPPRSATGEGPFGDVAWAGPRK

[3] = Trypanosoma cruzi growth suppression in host cells – NIH3T3 host cells, beta-gal luminescence, confirmation (AID 2044); type: functional, cell-based;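 further: intracellular parasites grown in NIH/3T3 mouse fibroblasts as host cells; luminescent beta-galactosidase reporter signal from transgenic T. cruzi replicating inside host cells; inhibitors lower the luminescence signal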
[4] = NIH3T3 cell viability loss – ATP luminescence, mouse fibroblasts, counter-screen, dose response (AID 2010); type: functional, cell-based;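 further: cells exposed to compound for about 90 hours before reading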
[5] = viability loss in HeLa cells – cytotoxicity control for MgcRacGAP inhibitor project, dose response (AID 624300); type: functional
[6] = biological target: T2, Tyrosyl-DNA phosphodiesterase 2 (Homo sapiens, UniProt O95551); assay: potency against TDP2 phosphodiesterase activity – biochemical, epi absorbance, IC50, dose response (AID 743297)
T2 sequence (O95551 whole entry): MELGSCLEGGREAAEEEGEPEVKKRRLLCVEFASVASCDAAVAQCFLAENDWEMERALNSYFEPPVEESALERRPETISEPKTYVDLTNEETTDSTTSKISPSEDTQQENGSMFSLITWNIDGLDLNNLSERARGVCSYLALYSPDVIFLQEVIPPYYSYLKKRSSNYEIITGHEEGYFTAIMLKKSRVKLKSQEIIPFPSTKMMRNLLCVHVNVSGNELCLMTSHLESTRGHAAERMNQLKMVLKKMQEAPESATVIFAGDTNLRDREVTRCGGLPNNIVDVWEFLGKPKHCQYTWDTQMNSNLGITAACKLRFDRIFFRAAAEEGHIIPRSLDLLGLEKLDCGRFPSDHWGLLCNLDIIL

[7] = biological target: T3, Rac GTPase-activating protein 1 (Homo sapiens, UniProt Q9H0H5); assay: blockers of MgcRacGAP-driven Rac1 GTP hydrolysis – biochemical, ADP Hunter fluorescence, primary and confirmatory, confirmation (AID 624330); type: functional
T3 sequence (Q9H0H5 whole entry): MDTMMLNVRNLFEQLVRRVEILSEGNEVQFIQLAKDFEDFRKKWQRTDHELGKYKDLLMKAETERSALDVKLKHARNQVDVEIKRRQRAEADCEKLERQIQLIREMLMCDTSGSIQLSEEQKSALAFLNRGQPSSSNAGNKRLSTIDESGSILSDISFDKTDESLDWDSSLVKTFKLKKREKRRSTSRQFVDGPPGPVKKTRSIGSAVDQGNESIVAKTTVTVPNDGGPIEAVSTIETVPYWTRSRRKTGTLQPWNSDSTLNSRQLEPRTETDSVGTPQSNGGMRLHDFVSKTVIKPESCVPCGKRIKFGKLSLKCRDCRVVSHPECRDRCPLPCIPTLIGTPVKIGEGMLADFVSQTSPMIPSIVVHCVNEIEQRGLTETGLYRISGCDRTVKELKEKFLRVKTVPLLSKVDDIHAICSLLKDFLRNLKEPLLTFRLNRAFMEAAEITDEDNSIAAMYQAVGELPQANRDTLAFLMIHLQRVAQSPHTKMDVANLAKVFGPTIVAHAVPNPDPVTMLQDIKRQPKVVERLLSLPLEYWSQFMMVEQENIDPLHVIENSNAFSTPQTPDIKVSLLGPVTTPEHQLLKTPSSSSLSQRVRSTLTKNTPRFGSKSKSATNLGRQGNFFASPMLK

[8] = biological target: Mitochondrial peptide methionine sulfoxide reductase (Bos taurus, UniProt P54149); assay: Absorbance-based biochemical high throughput dose response assay for activators of Methionine sulfoxide reductase A (MsrA).; type: functional
Chain of Mitochondrial peptide methionine sulfoxide reductase (P54149 whole entry, the tested form may be a part): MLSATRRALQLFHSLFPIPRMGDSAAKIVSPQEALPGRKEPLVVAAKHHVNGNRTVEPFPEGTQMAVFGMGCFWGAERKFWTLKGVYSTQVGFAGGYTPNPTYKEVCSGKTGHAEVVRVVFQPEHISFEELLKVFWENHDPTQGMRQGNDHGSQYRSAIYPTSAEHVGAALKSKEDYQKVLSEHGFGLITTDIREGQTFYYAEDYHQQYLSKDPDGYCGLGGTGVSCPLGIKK

[9] = biological target: T4, Sentrin-specific protease 6 (Homo sapiens, UniProt Q9GZR1); assay: inhibition of human SENP6 catalytic domain – biochemical, luminescence, set 2, SAR follow-up (AID 588598); type: functional
T4 sequence (Q9GZR1 whole entry): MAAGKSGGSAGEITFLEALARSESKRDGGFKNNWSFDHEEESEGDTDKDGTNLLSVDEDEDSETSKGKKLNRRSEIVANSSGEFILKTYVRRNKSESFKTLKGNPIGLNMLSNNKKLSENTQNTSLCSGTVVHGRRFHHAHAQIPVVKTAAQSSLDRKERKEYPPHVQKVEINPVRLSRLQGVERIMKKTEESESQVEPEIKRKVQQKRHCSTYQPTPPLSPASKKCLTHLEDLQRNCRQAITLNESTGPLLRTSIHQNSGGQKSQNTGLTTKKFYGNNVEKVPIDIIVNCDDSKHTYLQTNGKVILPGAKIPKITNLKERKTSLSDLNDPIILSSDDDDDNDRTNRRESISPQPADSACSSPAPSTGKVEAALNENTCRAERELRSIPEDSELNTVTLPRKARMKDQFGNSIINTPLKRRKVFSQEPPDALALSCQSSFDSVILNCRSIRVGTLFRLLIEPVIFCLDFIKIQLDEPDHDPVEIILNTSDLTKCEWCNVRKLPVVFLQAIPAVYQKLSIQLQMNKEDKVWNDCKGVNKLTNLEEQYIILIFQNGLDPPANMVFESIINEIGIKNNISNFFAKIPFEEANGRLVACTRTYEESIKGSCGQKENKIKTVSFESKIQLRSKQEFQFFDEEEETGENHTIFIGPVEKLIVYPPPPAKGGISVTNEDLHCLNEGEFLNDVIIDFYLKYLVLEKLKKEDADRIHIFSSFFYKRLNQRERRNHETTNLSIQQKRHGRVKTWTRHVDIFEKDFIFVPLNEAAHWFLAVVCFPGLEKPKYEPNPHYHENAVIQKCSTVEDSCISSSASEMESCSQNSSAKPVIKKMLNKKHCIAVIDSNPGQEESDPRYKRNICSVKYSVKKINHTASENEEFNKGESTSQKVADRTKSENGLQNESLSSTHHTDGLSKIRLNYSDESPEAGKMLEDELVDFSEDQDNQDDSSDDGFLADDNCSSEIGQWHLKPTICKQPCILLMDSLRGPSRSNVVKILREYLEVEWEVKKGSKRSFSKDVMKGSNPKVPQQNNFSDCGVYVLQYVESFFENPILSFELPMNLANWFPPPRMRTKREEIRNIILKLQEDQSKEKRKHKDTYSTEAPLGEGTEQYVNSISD

Caspase-3 [10] = biological target: T5, Caspase-3 (Homo sapiens, UniProt P42574); assay: SAR Analysis of small molecule inhibitors of Sentrin-specific proteases (SENPs) using a Caspase-3 Selectivity assay. [Related pubchem assays (depositor defined):AID2540, AID2599, AID434973, AID489001]; type: functional
T5 sequence (P42574 whole entry): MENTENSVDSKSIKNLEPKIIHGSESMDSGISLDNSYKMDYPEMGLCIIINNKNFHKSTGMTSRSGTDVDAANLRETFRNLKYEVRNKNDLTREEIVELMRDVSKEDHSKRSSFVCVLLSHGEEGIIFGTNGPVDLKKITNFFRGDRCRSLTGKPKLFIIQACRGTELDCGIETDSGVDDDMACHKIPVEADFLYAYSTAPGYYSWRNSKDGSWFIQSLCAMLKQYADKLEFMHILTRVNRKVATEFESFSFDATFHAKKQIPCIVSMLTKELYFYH

[11] = biological target: T6, Sentrin-specific protease 8 (Homo sapiens, UniProt Q96LD8); assay: inhibition of human SENP8 cleavage activity – biochemical, luminescence, SAR follow-up (AID 504501); type: functional
T6 sequence (Q96LD8 whole entry): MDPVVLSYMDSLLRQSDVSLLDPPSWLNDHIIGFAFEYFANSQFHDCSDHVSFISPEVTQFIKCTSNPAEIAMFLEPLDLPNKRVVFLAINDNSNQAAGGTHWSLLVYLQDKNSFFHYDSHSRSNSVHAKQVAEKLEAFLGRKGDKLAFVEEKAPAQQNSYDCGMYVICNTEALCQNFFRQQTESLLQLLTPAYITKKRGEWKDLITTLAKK

Caspase-3 [12] = biological target: T5, Caspase-3; assay: inhibition of recombinant caspase-3 activity – biochemical, luminescence, set 2, selectivity assay for SENP protease inhibitor project, SAR follow-up (AID 588599); type: functional
[13] = biological target: T6, Sentrin-specific protease 8; assay: inhibition of sentrin protease 8 – biochemical, luminescence, set 2, SAR follow-up (AID 588601); type: functional
[14] = biological target: T7, Sentrin-specific protease 7 (Homo sapiens, UniProt Q9BQF6); assay: inhibition of human SENP7 cleavage activity – biochemical, luminescence, SAR follow-up (AID 504497); type: functional
T7 sequence (Q9BQF6 whole entry): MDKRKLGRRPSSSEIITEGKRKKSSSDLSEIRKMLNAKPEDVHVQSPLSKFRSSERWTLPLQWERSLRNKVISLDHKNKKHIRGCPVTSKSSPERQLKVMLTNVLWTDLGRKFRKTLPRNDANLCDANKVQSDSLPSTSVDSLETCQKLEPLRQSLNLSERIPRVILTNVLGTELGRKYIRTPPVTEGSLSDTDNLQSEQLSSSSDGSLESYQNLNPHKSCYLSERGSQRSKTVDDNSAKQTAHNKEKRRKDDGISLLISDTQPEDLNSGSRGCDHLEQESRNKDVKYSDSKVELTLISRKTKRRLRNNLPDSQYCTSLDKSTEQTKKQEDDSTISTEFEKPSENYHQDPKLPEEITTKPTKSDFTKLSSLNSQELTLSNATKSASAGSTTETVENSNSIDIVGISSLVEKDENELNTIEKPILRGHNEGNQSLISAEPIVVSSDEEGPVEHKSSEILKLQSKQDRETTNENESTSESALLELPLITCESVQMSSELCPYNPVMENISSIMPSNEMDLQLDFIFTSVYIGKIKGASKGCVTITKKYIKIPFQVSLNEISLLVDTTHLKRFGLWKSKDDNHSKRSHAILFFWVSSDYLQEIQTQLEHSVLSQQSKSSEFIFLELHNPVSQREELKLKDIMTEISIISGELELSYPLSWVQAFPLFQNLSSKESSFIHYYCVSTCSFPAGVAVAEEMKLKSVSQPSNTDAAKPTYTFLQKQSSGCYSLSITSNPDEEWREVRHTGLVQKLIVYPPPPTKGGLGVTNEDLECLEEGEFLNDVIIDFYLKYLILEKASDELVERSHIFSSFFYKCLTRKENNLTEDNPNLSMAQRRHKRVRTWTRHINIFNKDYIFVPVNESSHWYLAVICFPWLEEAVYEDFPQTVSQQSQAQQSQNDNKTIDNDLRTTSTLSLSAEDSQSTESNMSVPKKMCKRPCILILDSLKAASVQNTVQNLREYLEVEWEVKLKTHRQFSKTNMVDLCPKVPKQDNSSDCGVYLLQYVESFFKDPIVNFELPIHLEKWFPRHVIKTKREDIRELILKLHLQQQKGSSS

[15] = biological target: T7, Sentrin-specific protease 7; assay: inhibition of human SENP7 cleavage activity – biochemical, luminescence, set 2, SAR follow-up (AID 588600); type: functional
[16] = biological target: T4, Sentrin-specific protease 6; assay: SAR Analysis of small molecule inhibitors of Sentrin-specific protease 6 (SENP6) using a Luminescent assay. [Related pubchem assays (depositor defined):AID2582, AID2599]; type: functional
[17] = biological target: Melanin-concentrating hormone receptor 1 (Homo sapiens, UniProt Q99705); assay: Late-stage fluorescence-based counterscreen for antagonists of the G-protein coupled receptor 7 (GPR7): cell-based dose response assay to identify antagonists of the melanin-concentrating hormone receptor 1 (MCHR1) Set 6.; type: functional
Chain of Melanin-concentrating hormone receptor 1 (Q99705 whole entry): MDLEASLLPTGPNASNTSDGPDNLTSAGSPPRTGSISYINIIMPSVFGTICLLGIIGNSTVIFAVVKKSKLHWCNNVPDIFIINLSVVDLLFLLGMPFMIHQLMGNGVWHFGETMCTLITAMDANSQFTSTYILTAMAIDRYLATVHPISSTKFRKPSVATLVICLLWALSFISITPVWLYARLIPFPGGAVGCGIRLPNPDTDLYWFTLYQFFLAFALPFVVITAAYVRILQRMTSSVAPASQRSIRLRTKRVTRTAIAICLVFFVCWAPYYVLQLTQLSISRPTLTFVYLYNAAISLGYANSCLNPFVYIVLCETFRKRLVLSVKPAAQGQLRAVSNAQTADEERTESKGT

Compound: CCCCc1n(C)c2ccccc2[n+]1CC(=O)c1ccc(Cl)cc1
EC50 [1]: 9.58 µM (active)

IC50 [2]: 2.96 µM (active)
Compound: CCN(CC)S(=O)(=O)c1ccc(N2CCOCC2)c(NC(=O)COc2ccccc2)c1

Compound: CCN(CC)S(=O)(=O)c1cnccc1N1CCN(c2cccc(Cl)c2)CC1
EC50 [3]: < 0.1 µM (active)
EC50 [1]: 24.7 µM (active)
EC50 [4]: > 60 µM (not active)
EC50 (cells): 0.268 µM (active)

IC50 [6]: > 128 µM (inactive)
IC50 [7]: 58.9 µM (active)
EC50 [8]: > 104 µM (inactive)
Compound: C[n+]1c(-c2ccccc2)cc2c(=Cc3ccccc3)c3ccccc3n21
CC50 [5]: 26.3 µM (active)

IC50 [9]: 11.7 µM (active)
IC50 (Caspase-3 [10]): 37 µM (active)
IC50 (Caspase-3 [12]): 33.8 µM (active)
IC50 [14]: 14 µM (active)
IC50 [15]: 11.1 µM (active)
IC50 [16]: 32 µM (active)
Compound: Fc1ccc(-c2nc(/C=C/c3ccccc3)no2)cc1
IC50 [11]: 33 µM (active)
IC50 [13]: 11.7 µM (active)

IC50 [9]: > 99 µM (inactive)
IC50 (Caspase-3 [12]): > 99 µM (inactive)
IC50 [15]: > 99 µM (inactive)
Compound: COc1cc(/C=C(/C#N)c2nc(-c3ccc(C)cc3)no2)ccc1OCc1cccc(C(F)(F)F)c1
IC50 [13]: > 99 µM (inactive)

IC50 [17]: 0.781 µM (active)
Compound: COc1ccc(Oc2c(Cl)cnn(CC(=O)N3c4ccccc4CC3C)c2=O)cc1 (stereo not drawn)
